The target of one data set is T1, α1H (CaV 3.2) (Homo sapiens, UniProt O95180).
T1 construct: expressed in transfected cells; host or cells: HEK 293
The data set can be described thus: T-type calcium channel block, whole cell patch clamp. Format: cell-based. Conditions: HEK cells, mainly non-inactivated protocol; values above 10,000 nM represented as 10000. In outline: (§1)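 HEK293 cells stably expressing human T-type channels, whole-cell patch clamp; compounds in external solution with 0.1-0.01% DMSO, applied by gravity. Mainly non-inactivating protocol: holding −110 mV, 1 s pre-pulse −100 mV, 50 ms test pulse −40 mV (inactivated protocol uses ~−85 mV pre-pulse); IC50 reported.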
(Patch clamp records ionic current or voltage across a cell membrane.)

The target in the next data set is T2, α1G (CaV 3.1) (Homo sapiens, UniProt O43497).
T2 construct: expressed in transfected cells; host or cells: HEK 293
The data set is described as above. The format is cell-based. Conditions: HEK cells, mainly non-inactivated protocol; values above 10,000 nM represented as 10000. The gist of the method:
as §1

The target in another data set is hERG K+ channel (Homo sapiens, UniProt Q12809). Nature of the data set: hERG activity. An excerpt:
(§2) In addition to being able to modulate a particular calcium channel (e.g., CaV 3.1, CaV 3.2, or CaV 3.3), it may be desirable that the compound has very low activity with respect to the hERG K^+ channel, which is expressed in the heart: compounds that block this channel with high potency may cause reactions which are fatal. See, e.g., Bowlby et al., “hERG (KCNH2 or KV11.1 K^+ Channels: Screening for Cardiac Arrhythmia Risk,” Curr. Drug Metab. 9(9):965-70 (2008)). […] Such compounds may be particularly useful in the methods described herein.

A further data set concerns the target CYP2C9 (Homo sapiens, UniProt P11712). The data set can be described thus: cytochrome inhibition. Format: in vitro ADME. The following applies: read-out: inhibition of cytochrome 2C9.
Source text: as §2

The target of a further data set is CYP3A4 (Homo sapiens, UniProt P08684). The data set can be described thus: cytochrome inhibition. The format is in vitro ADME. The following applies: read-out: inhibition of cytochrome 3A4.
Source text: as §2

In a further data set the target is CYP2D6 (Homo sapiens, UniProt P10635). The data set can be described thus: cytochrome inhibition. The format is in vitro ADME. Conditions: read-out: inhibition of cytochrome 2D6.

A word on the IC50: it is the point on the concentration scale where inhibition reaches its midpoint. What is called inhibition is the percentage by which the read-out fell short of the control.

A value given as a limit tells only on which side of the number the result lay.

T1 sequence (O95180 whole entry): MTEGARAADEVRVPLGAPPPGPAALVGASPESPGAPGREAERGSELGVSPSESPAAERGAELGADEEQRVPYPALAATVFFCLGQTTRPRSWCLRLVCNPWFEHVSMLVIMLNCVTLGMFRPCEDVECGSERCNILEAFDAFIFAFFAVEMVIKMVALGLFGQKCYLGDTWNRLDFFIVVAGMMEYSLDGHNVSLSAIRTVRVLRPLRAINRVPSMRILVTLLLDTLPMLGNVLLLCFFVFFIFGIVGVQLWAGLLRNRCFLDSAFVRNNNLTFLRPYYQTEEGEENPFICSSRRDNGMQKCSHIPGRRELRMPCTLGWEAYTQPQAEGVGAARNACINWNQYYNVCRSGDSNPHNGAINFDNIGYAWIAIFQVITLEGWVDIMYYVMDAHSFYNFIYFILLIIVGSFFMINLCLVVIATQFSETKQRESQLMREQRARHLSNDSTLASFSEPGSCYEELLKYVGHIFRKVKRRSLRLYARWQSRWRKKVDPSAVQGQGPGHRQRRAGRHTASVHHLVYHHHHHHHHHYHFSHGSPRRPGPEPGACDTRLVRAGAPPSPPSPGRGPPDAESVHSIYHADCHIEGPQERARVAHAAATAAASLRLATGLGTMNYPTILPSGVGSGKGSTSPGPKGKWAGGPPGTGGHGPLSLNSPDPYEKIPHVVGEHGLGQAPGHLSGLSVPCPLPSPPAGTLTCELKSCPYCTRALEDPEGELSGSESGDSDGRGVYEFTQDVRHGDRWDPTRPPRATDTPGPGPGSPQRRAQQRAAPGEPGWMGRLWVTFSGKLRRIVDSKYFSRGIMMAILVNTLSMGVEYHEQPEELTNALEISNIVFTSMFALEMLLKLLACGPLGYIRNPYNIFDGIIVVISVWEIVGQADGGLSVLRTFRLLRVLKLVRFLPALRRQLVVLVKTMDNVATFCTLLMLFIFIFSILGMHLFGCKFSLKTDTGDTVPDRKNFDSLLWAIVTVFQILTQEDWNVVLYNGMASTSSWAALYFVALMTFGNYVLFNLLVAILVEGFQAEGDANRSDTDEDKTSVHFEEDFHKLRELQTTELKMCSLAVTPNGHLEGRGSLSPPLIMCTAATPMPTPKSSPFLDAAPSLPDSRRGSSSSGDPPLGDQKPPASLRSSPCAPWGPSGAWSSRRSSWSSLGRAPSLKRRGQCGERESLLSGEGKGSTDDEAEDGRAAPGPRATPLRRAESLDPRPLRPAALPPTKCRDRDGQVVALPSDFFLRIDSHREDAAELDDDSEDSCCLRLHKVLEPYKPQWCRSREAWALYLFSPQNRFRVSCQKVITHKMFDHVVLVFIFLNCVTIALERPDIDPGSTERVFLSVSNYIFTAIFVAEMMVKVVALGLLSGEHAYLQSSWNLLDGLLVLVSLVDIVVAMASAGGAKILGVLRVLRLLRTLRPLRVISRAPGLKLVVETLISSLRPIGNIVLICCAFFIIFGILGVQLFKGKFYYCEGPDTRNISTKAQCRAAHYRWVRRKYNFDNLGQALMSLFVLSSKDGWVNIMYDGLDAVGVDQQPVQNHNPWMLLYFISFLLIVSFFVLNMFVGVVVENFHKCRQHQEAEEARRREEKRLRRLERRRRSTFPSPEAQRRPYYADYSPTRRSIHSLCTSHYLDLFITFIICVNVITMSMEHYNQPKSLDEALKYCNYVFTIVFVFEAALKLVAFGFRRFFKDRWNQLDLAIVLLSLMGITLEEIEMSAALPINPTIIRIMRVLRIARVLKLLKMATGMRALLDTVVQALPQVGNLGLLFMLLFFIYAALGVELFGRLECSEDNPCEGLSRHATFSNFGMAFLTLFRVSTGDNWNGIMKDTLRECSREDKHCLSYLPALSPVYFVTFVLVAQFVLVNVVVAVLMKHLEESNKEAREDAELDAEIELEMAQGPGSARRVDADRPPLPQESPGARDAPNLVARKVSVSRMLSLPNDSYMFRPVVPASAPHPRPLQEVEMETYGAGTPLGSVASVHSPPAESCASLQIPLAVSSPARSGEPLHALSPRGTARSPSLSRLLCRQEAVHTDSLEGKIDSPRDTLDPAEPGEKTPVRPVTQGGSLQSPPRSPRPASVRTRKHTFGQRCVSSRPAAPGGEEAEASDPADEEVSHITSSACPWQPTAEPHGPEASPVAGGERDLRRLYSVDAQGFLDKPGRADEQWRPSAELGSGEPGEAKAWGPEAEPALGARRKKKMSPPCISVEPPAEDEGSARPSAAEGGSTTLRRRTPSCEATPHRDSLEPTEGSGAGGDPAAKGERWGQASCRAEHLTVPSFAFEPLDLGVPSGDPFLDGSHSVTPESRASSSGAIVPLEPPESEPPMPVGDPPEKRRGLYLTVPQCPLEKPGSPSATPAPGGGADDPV
CYP3A4, sequence (P08684 whole entry): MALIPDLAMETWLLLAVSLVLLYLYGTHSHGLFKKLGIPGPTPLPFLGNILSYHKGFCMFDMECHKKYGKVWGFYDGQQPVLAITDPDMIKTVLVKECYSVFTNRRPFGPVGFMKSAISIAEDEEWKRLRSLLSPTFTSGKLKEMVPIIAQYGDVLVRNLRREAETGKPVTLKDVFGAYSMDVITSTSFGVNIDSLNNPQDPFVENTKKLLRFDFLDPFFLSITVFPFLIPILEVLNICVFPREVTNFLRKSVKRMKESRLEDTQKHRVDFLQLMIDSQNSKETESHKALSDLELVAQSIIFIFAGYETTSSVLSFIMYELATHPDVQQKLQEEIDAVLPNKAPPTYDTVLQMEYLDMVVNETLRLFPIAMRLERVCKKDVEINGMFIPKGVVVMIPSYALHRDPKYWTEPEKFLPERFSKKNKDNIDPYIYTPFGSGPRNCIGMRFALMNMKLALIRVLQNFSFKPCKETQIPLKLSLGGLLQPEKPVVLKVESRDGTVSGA
hERG K+ channel, sequence (Q12809 whole entry): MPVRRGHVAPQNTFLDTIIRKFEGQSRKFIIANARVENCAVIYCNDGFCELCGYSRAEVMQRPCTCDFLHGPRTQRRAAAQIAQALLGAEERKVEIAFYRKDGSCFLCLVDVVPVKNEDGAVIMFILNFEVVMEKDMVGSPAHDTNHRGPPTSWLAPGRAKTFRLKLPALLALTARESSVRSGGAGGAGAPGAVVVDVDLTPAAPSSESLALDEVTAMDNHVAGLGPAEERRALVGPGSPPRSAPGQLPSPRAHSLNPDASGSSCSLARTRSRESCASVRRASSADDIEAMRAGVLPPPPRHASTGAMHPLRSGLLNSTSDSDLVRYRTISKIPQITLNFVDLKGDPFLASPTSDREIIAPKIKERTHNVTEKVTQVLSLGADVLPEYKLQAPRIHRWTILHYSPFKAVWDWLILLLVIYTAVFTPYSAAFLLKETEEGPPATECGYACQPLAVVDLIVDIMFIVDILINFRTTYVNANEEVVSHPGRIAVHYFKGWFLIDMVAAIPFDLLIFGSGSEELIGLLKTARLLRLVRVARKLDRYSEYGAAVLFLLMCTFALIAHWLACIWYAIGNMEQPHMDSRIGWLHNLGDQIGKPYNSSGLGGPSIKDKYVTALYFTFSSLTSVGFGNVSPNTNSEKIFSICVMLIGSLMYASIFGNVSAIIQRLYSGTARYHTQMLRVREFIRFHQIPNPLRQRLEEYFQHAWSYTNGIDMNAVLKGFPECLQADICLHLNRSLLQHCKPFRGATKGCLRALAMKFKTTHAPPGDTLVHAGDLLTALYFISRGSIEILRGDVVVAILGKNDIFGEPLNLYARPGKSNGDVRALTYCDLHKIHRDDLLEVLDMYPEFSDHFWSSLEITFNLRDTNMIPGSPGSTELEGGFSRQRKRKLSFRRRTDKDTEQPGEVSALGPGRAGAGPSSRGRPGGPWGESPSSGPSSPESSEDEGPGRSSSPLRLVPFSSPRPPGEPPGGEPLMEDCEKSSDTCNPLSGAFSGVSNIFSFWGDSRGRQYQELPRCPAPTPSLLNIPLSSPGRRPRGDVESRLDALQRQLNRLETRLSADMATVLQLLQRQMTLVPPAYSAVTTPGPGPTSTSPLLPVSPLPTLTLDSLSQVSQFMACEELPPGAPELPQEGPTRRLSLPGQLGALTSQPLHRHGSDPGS
CYP2D6, sequence (P10635 whole entry): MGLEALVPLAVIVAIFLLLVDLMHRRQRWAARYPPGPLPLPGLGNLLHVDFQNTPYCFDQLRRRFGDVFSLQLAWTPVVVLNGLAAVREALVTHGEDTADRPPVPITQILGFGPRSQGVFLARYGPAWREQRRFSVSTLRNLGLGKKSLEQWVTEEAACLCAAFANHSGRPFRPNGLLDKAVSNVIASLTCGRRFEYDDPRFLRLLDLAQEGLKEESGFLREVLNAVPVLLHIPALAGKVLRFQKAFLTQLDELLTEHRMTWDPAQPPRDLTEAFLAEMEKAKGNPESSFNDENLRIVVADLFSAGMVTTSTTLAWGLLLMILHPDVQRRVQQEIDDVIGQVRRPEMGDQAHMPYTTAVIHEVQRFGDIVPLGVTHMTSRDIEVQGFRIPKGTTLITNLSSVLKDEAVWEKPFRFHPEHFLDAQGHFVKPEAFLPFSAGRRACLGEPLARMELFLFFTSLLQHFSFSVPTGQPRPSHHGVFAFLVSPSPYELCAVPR
CYP2C9, sequence (P11712 whole entry): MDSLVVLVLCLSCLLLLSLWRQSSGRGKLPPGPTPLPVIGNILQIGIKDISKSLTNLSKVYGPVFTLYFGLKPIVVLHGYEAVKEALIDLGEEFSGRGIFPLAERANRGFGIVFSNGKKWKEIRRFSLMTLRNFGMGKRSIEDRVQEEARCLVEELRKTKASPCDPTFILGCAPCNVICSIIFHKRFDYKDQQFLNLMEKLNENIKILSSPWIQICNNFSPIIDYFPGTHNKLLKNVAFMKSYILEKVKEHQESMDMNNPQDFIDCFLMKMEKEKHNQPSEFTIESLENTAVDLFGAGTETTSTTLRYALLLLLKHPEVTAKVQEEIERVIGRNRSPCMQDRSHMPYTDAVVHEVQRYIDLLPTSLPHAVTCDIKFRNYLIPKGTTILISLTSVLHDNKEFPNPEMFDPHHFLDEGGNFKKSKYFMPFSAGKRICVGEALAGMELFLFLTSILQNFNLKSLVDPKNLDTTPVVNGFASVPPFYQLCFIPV

Regarding “N-(3,5- bis(trifluoromethyl) phenyl)-2-(1- (piperidine-3- carbonyl)piperidin-4- yl)acetamide [Compound 2]”, the concentration for half-maximal inhibition (IC50) on α1H (CaV 3.2) is 350 nM.
Regarding `N[C@@H]1CCCC[C@H]1C(=O)N1CCC(CC(=O)Nc2cc(C(F)(F)F)cc(C(F)(F)F)c2)CC1` (racemic) [Compound 3, trans-2-(1-(2-aminocyclohexanecarbonyl)piperidin-4-yl)-N-(3,5-bis(trifluoromethyl)phenyl)acetamide], the IC50 is above 10 µM on α1G (CaV 3.1) and 60 nM on α1H (CaV 3.2). Further, the hERG activity entry on hERG K+ channel is given as “negligible”. Besides, the inhibition at 10 micromolar on CYP2C9, at CYP3A4 and on CYP2D6 was below 10% each time.

The values above are taken from patent US20120220564A1, “SELECTIVE CALCIUM CHANNEL MODULATORS” (Zalicus Pharmaceuticals Ltd., priority 2009, published 2012).
